Assay results: US20090270363A1, “2-Aryl- and 2-Heteroarylthiazolyl Compounds, Methods for Their Preparation and Use Thereof” (Wyeth, priority 2008, published 2009)

What was measured:
[1] = test system: securin "knock out" cells F3 (Securin-/-); test: Growth inhibition (sulforhodamine B, 5 days) of securin knock out cells F3; format: cell-based; details: for IC50: 120 h, securin knock out F3 cells, 5 days, SRB; for Selectivity Ratio F3: IC50 HCT116 / IC50 securin KO F3
[2] = test system: securin "knock out" cells D8 (Securin-/-); test: Growth inhibition (sulforhodamine B, 5 days) of securin knock out cells D8; format: cell-based; details: for IC50: 120 h, securin knock out D8 cells, 5 days, SRB; for Selectivity Ratio D8: IC50 HCT116 / IC50 securin KO D8
[3] = test system: Xenografts of a Human Breast Carcinoma Cell Line (MDA-MB-361); test: Tumor xenograft study versus Herceptin (Table 2); format: in vivo
Description: (§1) Selected fused bicyclic 2-aryl- or 2-heteroarylthiazolyl compounds of formula I were tested for their activity in a securin parental cell line (HCT116 FB) and a securin knockout (KO) cell line. […] The in-vivo activity of selected fused bicyclic 2-aryl- or 2-heteroarylthiazolyl compounds of formula I was studied in cells growing as xenografts in athymic (nude) mice. The effect of Examples 164, 166 and 167 was studied in xenografts of a human breast carcinoma cell line (MDA-MB-361).
(§2) In-vivo Activity in Tumor Xenografts. […] The fused bicyclic 2-arylthiazolyl compounds were formulated using 0.5% Methocel™ (methylcellulose) and 0.4% Tween 80™ (polysorbate-80 and oleic acid) and administered daily orally (PO), by gavage or by syringe. Tumor mass [(length×width^2)/2] was determined every 7 days. Inhibition of tumor growth was calculated relative to conventional (vehicle treated) controls.

[4] = test system: HCT116 cells (Securin+/+, securin parental, HCT116 FB); test: Growth inhibition (sulforhodamine B, 5 days) of securin parental cells; format: cell-based; details: Homo sapiens, HCT-116, 120 h, SRB
[5] = test system: Xenografts of a Human Breast Carcinoma Cell Line (MDA-MB-361); test: Tumor xenograft study versus Vincristine (Table 3); format: in vivo; details: days 2 through 21; for S/T = # of Survivors/# of Treated on Day +36: * = sacrificed earlier due to tumor size
Description: as §1, §2
The effectiveness of Examples 164, 166 and 167 versus Vincristine at controlling tumor growth was studied and the results are summarized in Table 3 and FIG. 2.

[6] = 20 mg/kg/dose PO, days 1 through 20
[7] = 25 mg/kg/dose IP, days 1, 3, 5 ... 19
[8] = 25 mg/kg/dose PO, days 1 through 20

## CN(C)c1ccc(-c2nc3c(s2)C(O)CCC3)cc1 (stereo not drawn) [Example 166, 2-[4-(dimethylamino)phenyl]-4,5,6,7-tetrahydro-1,3-benzothiazol-7-ol]
[1]
  IC50: 3.5 µM
  Selectivity Ratio F3: 15
[2]
  IC50: 1.7 µM
  Selectivity Ratio D8: 30
[3]; [6]
  % T/C Day 7: 69%
  % T/C Day 14: 126%
  % T/C Day 21: 102%
  Relative Tumor Growth Day 7: 1.33
  Relative Tumor Growth Day 14: 4.05
  Relative Tumor Growth Day 21: 10.76
  S/T = # of Survivors/# of Treated on Day +21: 10/10
[3]; [7]
  % T/C Day 7: 80%
  % T/C Day 14: 93%
  % T/C Day 21: 92%
  Relative Tumor Growth Day 7: 1.55
  Relative Tumor Growth Day 14: 3.00
  Relative Tumor Growth Day 21: 9.63
  S/T = # of Survivors/# of Treated on Day +21: 8/10
[4]
  IC50: 52.5 µM
[5]; 10 mg/kg/dose PO
  % T/C Day 8: 60%
  % T/C Day 15: 60%
  % T/C Day 22: 100%
  Relative Tumor Growth Day 8: 3.16
  Relative Tumor Growth Day 15: 7.40
  Relative Tumor Growth Day 22: 22.01
[5]; 30 mg/kg/dose PO
  % T/C Day 8: 55%
  % T/C Day 15: 59%
  % T/C Day 22: 98%
  Relative Tumor Growth Day 8: 2.87
  Relative Tumor Growth Day 15: 7.34
  Relative Tumor Growth Day 22: 21.48
[5]; 40 mg/kg/dose PO
  % T/C Day 8: 33%
  % T/C Day 15: 35%
  % T/C Day 22: 53%
  Relative Tumor Growth Day 8: 1.72
  Relative Tumor Growth Day 15: 4.29
  Relative Tumor Growth Day 22: 11.74
  Relative Tumor Growth Day 29: 7.65
[5]; 50 mg/kg/dose PO
  % T/C Day 8: 58%
  % T/C Day 15: 62%
  Relative Tumor Growth Day 8: 3.04
  Relative Tumor Growth Day 15: 7.67
  Relative Tumor Growth Day 22: Toxic
  S/T = # of Survivors/# of Treated on Day +36: 0/5

## CN(C)c1ccc(-c2nc3c(s2)[C@H](O)CCC3)cc1 [Example 164, (7R)-2-[4-(dimethylamino)phenyl]-4,5,6,7-tetrahydro-1,3-benzothiazol-7-ol]
[1]
  IC50: 1.3 µM
  Selectivity Ratio F3: 78
[2]
  selectivity ratios (IC50 HCT116 FB/IC50 securin KO): high selectivity ratios
  IC50: 0.81 µM
  Selectivity Ratio D8: 124
[3]; [7]
  % T/C Day 7: 64%
  % T/C Day 14: 101%
  % T/C Day 21: 74%
  Relative Tumor Growth Day 7: 1.23
  Relative Tumor Growth Day 14: 3.23
  Relative Tumor Growth Day 21: 8.04
  S/T = # of Survivors/# of Treated on Day +21: 4/5
[3]; [8]
  % T/C Day 7: 81%
  % T/C Day 14: 115%
  % T/C Day 21: 117%
  Relative Tumor Growth Day 7: 1.57
  Relative Tumor Growth Day 14: 3.68
  Relative Tumor Growth Day 21: 12.27
  S/T = # of Survivors/# of Treated on Day +21: 5/5
[4]
  IC50: 101 µM
[5]; 25 mg/kg/dose PO
  % T/C Day 8: 41%
  % T/C Day 15: 37%
  % T/C Day 22: 45%
  Relative Tumor Growth Day 8: 2.17
  Relative Tumor Growth Day 15: 4.64
  Relative Tumor Growth Day 22: 10.02
  Relative Tumor Growth Day 29: 15.52
[5]; 50 mg/kg/dose PO
  % T/C Day 8: 45%
  Relative Tumor Growth Day 8: 2.37
  Relative Tumor Growth Day 15: Toxic
  S/T = # of Survivors/# of Treated on Day +36: 0/5
